The Ki is a measure of affinity in units of concentration, obtained from inhibition or displacement.

One experiment addresses T1, Protoporphyrinogen oxidase, mitochondrial (Nicotiana tabacum, UniProt O24164).
T1 sequence (O24164 whole entry): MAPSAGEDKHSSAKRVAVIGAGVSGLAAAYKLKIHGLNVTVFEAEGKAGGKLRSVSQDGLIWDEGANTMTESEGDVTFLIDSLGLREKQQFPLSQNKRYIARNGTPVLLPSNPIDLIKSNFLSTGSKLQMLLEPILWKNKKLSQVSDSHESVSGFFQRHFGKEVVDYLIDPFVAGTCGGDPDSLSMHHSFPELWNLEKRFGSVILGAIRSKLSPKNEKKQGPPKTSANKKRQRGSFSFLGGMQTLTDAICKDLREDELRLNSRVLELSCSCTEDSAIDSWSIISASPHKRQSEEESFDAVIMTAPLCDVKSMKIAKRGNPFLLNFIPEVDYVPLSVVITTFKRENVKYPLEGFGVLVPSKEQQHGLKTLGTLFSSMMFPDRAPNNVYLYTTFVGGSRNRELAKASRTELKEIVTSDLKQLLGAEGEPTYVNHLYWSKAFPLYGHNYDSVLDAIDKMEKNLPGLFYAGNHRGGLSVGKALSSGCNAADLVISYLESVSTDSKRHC
In words: Inhibition of Nicotiana tobacum PPO.
`O=C(O)c1cc(Oc2ccc(C(F)(F)F)cc2Cl)ccc1[N+](=O)[O-]` [ACIFLUORFEN] registered a Ki of 0.07 µM.

The next experiment deals with T2, Protoporphyrinogen oxidase (Homo sapiens, UniProt P50336).
T2 sequence (P50336 whole entry): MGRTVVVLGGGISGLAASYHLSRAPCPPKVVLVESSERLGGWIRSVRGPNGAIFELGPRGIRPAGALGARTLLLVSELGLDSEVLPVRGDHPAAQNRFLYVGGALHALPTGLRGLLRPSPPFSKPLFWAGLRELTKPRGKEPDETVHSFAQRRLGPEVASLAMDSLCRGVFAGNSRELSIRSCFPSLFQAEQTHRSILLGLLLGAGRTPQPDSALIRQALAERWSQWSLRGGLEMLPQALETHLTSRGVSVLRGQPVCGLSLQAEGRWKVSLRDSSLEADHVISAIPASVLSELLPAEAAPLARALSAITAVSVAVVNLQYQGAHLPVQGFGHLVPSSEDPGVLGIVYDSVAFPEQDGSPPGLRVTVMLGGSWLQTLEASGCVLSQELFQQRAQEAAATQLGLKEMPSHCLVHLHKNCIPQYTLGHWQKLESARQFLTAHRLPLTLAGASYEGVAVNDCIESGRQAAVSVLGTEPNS
Put plainly: Inhibition of human PPO by capillary electrophoresis method.
In turn, `CCOC(=O)CCCSc1nc2cc(-n3nc(C(C)(C)C)sc3=O)c(Cl)cc2s1` gave a Ki of 17.7 µM.

Regarding `CCOC(=O)Sc1nc2cc(-n3nc(C(C)(C)C)sc3=O)c(F)cc2s1`, the Ki is 0.04 µM.

In turn, `COC(=O)CSc1nc2cc(-n3nc(C(C)(C)C)sc3=O)c(F)cc2s1` registered a Ki of 3.05 µM.

Molecule `CCOC(=O)CSc1nc2cc(-n3nc(C(C)(C)C)sc3=O)c(F)cc2s1` had a Ki of 0.34 µM.

In turn, `CCOC(=O)C(C)Sc1nc2cc(-n3nc(C(C)(C)C)sc3=O)c(F)cc2s1` (stereo not given) showed a Ki of 5.89 µM. This Ki is about 17-fold higher than that of the molecule before.

In turn, `CCOC(=O)C(C)(C)Sc1nc2cc(-n3nc(C(C)(C)C)sc3=O)c(F)cc2s1` gave a Ki of 3.46 µM. Against the preceding molecule, the Ki is about 1.7-fold lower.

The molecule `CC(C)OC(=O)CSc1nc2cc(-n3nc(C(C)(C)C)sc3=O)c(F)cc2s1` came in with a Ki of 1.26 µM.

`CCOC(=O)Sc1nc2cc(-n3nc(C(C)(C)C)sc3=O)c(Cl)cc2s1`: the affinity, expressed as Ki, was 0.2 µM. This Ki is about 6.3-fold lower than that of the molecule before.

With `CCOC(=O)C(C)Sc1nc2cc(-n3nc(C(C)(C)C)sc3=O)c(Cl)cc2s1` (stereo not given), the Ki was found to be 12 µM.

On to `CCOC(=O)C(C)(C)Sc1nc2cc(-n3nc(C(C)(C)C)sc3=O)c(Cl)cc2s1`, for which the Ki was found to be 34.4 µM.

With `C#CCSc1nc2cc(-n3nc(C(C)(C)C)sc3=O)c(Cl)cc2s1`, the affinity, expressed as Ki, was 21.4 µM.

In the case of `CCOC(=O)CSc1nc2cc(-n3nc(C(C)(C)C)sc3=O)c(Br)cc2s1`, affinity was put at a Ki of 15.6 µM. This Ki and that of the molecule before are within 1.5-fold of each other.

In turn, `CCOC(=O)C(C)Sc1nc2cc(-n3nc(C(C)(C)C)sc3=O)c(Br)cc2s1` (stereo not given) came in with a Ki of 173 µM.

Regarding `CCOC(=O)C(C)(C)Sc1nc2cc(-n3nc(C(C)(C)C)sc3=O)c(Br)cc2s1`, the Ki worked out at 43.5 µM.

In the case of `CCOC(=O)CCSc1nc2cc(-n3nc(C(C)(C)C)sc3=O)c(Br)cc2s1`, the Ki came out at 27.5 µM.

Regarding `CCOC(=O)CCCSc1nc2cc(-n3nc(C(C)(C)C)sc3=O)c(Br)cc2s1`, the Ki was determined as 245 µM.

`C#CCSc1nc2cc(-n3nc(C(C)(C)C)sc3=O)c(Br)cc2s1` gave a Ki of 20.7 µM.

As for `CCOC(=O)Sc1nc2cc(-n3nc(C(C)(C)C)oc3=O)c(F)cc2s1`, the Ki is 0.72 µM.

`CCOC(=O)CCCSc1nc2cc(-n3nc(C(C)(C)C)oc3=O)c(F)cc2s1` had a Ki of 0.36 µM.

Take `C#CCSc1nc2cc(-n3nc(C(C)(C)C)oc3=O)c(F)cc2s1`: the affinity, expressed as Ki, was 1.92 µM. This Ki is about 5.3-fold higher than that of the molecule before.

In turn, `CCOC(=O)CSc1nc2cc(-n3nc(C(C)(C)C)oc3=O)c(Cl)cc2s1` yielded a Ki of 1.07 µM.

Molecule `CCOC(=O)C(C)(C)Sc1nc2cc(-n3nc(C(C)(C)C)oc3=O)c(Br)cc2s1` had a Ki of 1.58 µM.

Take `CC(C)Oc1cc(-n2nc(C(C)(C)C)oc2=O)c(Cl)cc1Cl` [OXADIAZON]: the affinity corresponds to a Ki of 2.93 µM.

A further experiment addresses T2, Protoporphyrinogen oxidase. In words: Inhibition of human PPO expressed in Escherichia coli BL21(DE3) by continuous fluorometric method.
Turning to `O=C(O)c1cc(Oc2ccc(C(F)(F)F)cc2Cl)ccc1[N+](=O)[O-]` [ACIFLUORFEN], the Ki is 1.71 µM.

The values above are taken from ChEMBL document CHEMBL1926669, “Quantitative structure-activity relationships of 1,3,4-thiadiazol-2(3H)-ones and 1,3,4-oxadiazol-2(3H)-ones as human protoporphyrinogen oxidase inhibitors” (Bioorg Med Chem, 2012).
